From patent US11434242B2, “Dopamine-b-hydroxylase inhibitors” (BIAL-PORTELA & Cª, S.A., priority 2017, dated 2022)
Counter-ions that a name gives are not always drawn.

Target: T1, Dopamine beta hydroxylase (Homo sapiens, UniProt P09172)
T1 construct: 125 μl of plasma; tissue Instituto Português do Sangue Transplantação; host or cells: human plasma from healthy donors
T1 sequence (P09172 40-617 limits assumed): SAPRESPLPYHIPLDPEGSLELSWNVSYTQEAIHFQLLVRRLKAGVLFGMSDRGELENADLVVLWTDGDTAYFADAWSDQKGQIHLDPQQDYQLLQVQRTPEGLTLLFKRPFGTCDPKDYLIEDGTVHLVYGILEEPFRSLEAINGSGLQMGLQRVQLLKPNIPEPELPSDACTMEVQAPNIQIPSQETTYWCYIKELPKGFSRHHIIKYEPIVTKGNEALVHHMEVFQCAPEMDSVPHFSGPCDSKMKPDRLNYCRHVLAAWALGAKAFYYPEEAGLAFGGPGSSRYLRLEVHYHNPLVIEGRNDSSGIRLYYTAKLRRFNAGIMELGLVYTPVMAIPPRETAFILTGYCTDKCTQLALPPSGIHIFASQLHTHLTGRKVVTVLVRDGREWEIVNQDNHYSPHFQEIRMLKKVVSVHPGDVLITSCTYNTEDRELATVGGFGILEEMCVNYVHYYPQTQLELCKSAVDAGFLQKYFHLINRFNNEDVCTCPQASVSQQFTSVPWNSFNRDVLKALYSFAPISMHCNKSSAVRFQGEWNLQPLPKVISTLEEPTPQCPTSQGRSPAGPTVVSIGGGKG
Assay: Dopamine beta hydroxylase activity in human plasma
Type: biochemical
Conditions: for Plasma (0.01 μM), activity in % of control: inhibitor 0.01 μM; for Plasma (0.1 μM), activity in % of control: inhibitor 0.1 μM
Procedure, shortened: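 Healthy-donor human plasma pre-incubated 10 min at 37° C with compound at final 10, 100 or 1000 nM in pH 5.0 acetate buffer with ascorbate, fumarate, pargyline, N-ethylmaleimide, catalase and copper sulfate. Tyramine substrate then added for 45 min; octopamine formed was isolated by SCX cartridge, periodate-converted and read at 330 nm; activity given as % control.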

Plasma (0.01 μM), activity in % of control	Plasma (0.1 μM), activity in % of control	Plasma (1 μM), activity in % of control (inhibitor 1 μM)	Structure (SMILES)
84.6 % of control	59.4 % of control	–	Cl.Cn1c(CCNCC2CCOCC2)c2n(c1=S)C[C@@H](c1c(F)ccc(F)c1F)C2 [Example 477, (R)-2-methyl-1-(2-(((tetrahydro-2H-pyran-4-yl)methyl)amino)ethyl)-6-(2,3,6-trifluorophenyl)-2,5,6,7-tetrahydro-3H-pyrrolo[1,2-c]imidazole-3-thione hydrochloride]
62.3 % of control	13.2 % of control	–	O=C(Cc1[nH]c(=S)n2c1[C@@H]1C[C@]1(c1c(F)ccc(Cl)c1F)C2)N[C@@H]1CCOC1 [Example 392, 2-((5aS,6aR)-5a-(3-chloro-2,6-difluorophenyl)-3-thioxo-2,3,5,5a,6,6a-hexahydrocyclopropa[3,4]pyrrolo[1,2-c]imidazol-1-yl)-N—((R)-tetrahydrofuran-3-yl)acetamide]
88.1 % of control	53.8 % of control	–	Cn1c(CCC(=O)NCC#N)c2n(c1=S)C[C@@H](c1c(F)ccc(F)c1F)C2 [Example 270, (R)—N-(cyanomethyl)-3-(2-methyl-3-thioxo-6-(2,3,6-trifluorophenyl)-2,5,6,7-tetrahydro-3H-pyrrolo[1,2-c]imidazol-1-yl)propanamide]
78.7 % of control	35.4 % of control	–	Cn1c(CC(=O)NC2CCOCC2)c2n(c1=S)C[C@@H](c1c(F)c(F)cc(F)c1F)C2 [Example 297, (R)-2-(2-methyl-6-(2,3,5,6-tetrafluorophenyl)-3-thioxo-2,5,6,7-tetrahydro-3H-pyrrolo[1,2-c]imidazol-1-yl)-N-(tetrahydro-2H-pyran-4-yl)acetamide]
81.7 % of control	35.9 % of control	–	COC[C@@H]1CCCN1C(=O)Cc1c2n(c(=S)n1C)C[C@@H](c1c(F)ccc(F)c1F)C2 [Example 247, 1-((S)-2-(methoxymethyl)pyrrolidin-1-yl)-2-((R)-2-methyl-3-thioxo-6-(2,3,6-trifluorophenyl)-2,5,6,7-tetrahydro-3H-pyrrolo[1,2-c]imidazol-1-yl)ethan-1-one]
68.2 % of control	32.3 % of control	–	Cn1c(CC(=O)NCC2CCOCC2)c2n(c1=S)C[C@H](c1cc(F)cc(F)c1)C2 [Example 428, (S)-2-(6-(3,5-difluorophenyl)-2-methyl-3-thioxo-2,5,6,7-tetrahydro-3H-pyrrolo[1,2-c]imidazol-1-yl)-N-((tetrahydro-2H-pyran-4-yl)methyl)acetamide]
99.8 % of control	57.7 % of control	–	Cn1c(CCC(=O)Nc2ccccn2)c2n(c1=S)C[C@H](c1c(F)ccc(Cl)c1F)C2 [Example 268, (S)-3-(6-(3-chloro-2,6-difluorophenyl)-2-methyl-3-thioxo-2,5,6,7-tetrahydro-3H-pyrrolo[1,2-c]imidazol-1-yl)-N-(pyridin-2-yl)propanamide]
86.0 % of control	60.1 % of control	–	O=C(Cc1[nH]c(=S)n2c1C[C@H](c1c(F)c(F)cc(F)c1F)C2)N[C@H]1CCOC1 [Example 369, 2-((R)-6-(2,3,5,6-tetrafluorophenyl)-3-thioxo-2,5,6,7-tetrahydro-3H-pyrrolo[1,2-c]imidazol-1-yl)-N—((S)-tetrahydrofuran-3-yl)acetamide]
105.9 % of control	92.4 % of control	–	Cl.Cn1c(CCN2CCOCC2)c2n(c1=S)C[C@@H](c1c(F)c(F)cc(F)c1F)C2 [Example 257, (R)-2-methyl-1-(2-morpholinoethyl)-6-(2,3,5,6-tetrafluorophenyl)-2,5,6,7-tetrahydro-3H-pyrrolo[1,2-c]imidazole-3-thione Hydrochloride]
132.5 % of control	86.2 % of control	–	O=C(Cc1[nH]c(=S)n2c1C[C@H](c1c(F)ccc(Br)c1F)C2)NC1CCCC1CO (stereo partly drawn) [Example 120, 2-((R)-6-(3-bromo-2,6-difluorophenyl)-3-thioxo-2,5,6,7-tetrahydro-3H-pyrrolo[1,2-c]imidazol-1-yl)-N-(2-(hydroxymethyl)cyclopentyl)acetamide]
86.8 % of control	54.9 % of control	–	CN(CCc1[nH]c(=S)n2c1C[C@@H](c1c(F)ccc(Cl)c1F)C2)C(=O)N1CCCC1 [Example 227, (S)—N-(2-(6-(3-chloro-2,6-difluorophenyl)-3-thioxo-2,5,6,7-tetrahydro-3H-pyrrolo[1,2-c]imidazol-1-yl)ethyl)-N-methylpyrrolidine-1-carboxamide]
40.6 % of control	4.0 % of control	–	CN(C(=O)Cc1c2n(c(=S)n1C)C[C@H](c1c(F)ccc(Cl)c1F)C2)[C@@H]1CCOC1 [Example 399, 2-((S)-6-(3-chloro-2,6-difluorophenyl)-2-methyl-3-thioxo-2,5,6,7-tetrahydro-3H-pyrrolo[1,2-c]imidazol-1-yl)-N-methyl-N—((R)-tetrahydrofuran-3-yl)acetamide]
92.2 % of control	79.8 % of control	–	CN(CCO)CCc1[nH]c(=S)n2c1C[C@H](c1c(F)ccc(Br)c1F)C2 [Example 183, (R)-6-(3-bromo-2,6-difluorophenyl)-1-(2-((2-hydroxyethyl)(methyl)amino)ethyl)-2,5,6,7-tetrahydro-3H-pyrrolo[1,2-c]imidazole-3-thione]
73.7 % of control	20.2 % of control	–	O=C(Cc1[nH]c(=S)n2c1[C@@H]1C[C@]1(c1c(F)ccc(Cl)c1F)C2)NCc1cccnc1 [Example 151, 2-((5aS,6aR)-5a-(3-chloro-2,6-difluorophenyl)-3-thioxo-2,3,5,5a,6,6a-hexahydrocyclopropa[3,4]pyrrolo[1,2-c]imidazol-1-yl)-N-(pyridin-3-ylmethyl)acetamide]
–	71.3 % of control	17.6 % of control	CCOC(=O)CNC(=O)Cc1[nH]c(=S)n2c1C[C@H](c1c(F)c(F)cc(F)c1F)C2 [Example 25, Ethyl (R)-(2-(6-(2,3,5,6-tetrafluorophenyl)-3-thioxo-2,5,6,7-tetrahydro-3H-pyrrolo[1,2-c]imidazol-1-yl)acetyl)glycinate]
98.1 % of control	29.7 % of control	–	CN(C(=O)Cc1[nH]c(=S)n2c1C[C@H](c1c(F)ccc(Br)c1F)C2)C1CCOCC1 [Example 128, (R)-2-(6-(3-bromo-2,6-difluorophenyl)-3-thioxo-2,5,6,7-tetrahydro-3H-pyrrolo[1,2-c]imidazol-1-yl)-N-methyl-N-(tetrahydro-2H-pyran-4-yl)acetamide]
72.8 % of control	37.4 % of control	–	CN(C(=O)Cc1c2n(c(=S)n1C)C[C@@]1(c3cc(Cl)ccc3F)C[C@@H]21)C1CCOC1 (stereo partly drawn) [Example 441, 2-((5aS,6aR)-5a-(5-chloro-2-fluorophenyl)-2-methyl-3-thioxo-2,3,5,5a,6,6a-hexahydrocyclopropa[3,4]pyrrolo[1,2-c]imidazol-1-yl)-N-methyl-N-(tetrahydrofuran-3-yl)acetamide]
63.1 % of control	9.4 % of control	–	Cn1c(CC(=O)NCc2cnccn2)c2n(c1=S)C[C@H](c1c(F)ccc(Cl)c1F)C2 [Example 328, (S)-2-(6-(3-chloro-2,6-difluorophenyl)-2-methyl-3-thioxo-2,5,6,7-tetrahydro-3H-pyrrolo[1,2-c]imidazol-1-yl)-N-(pyrazin-2-ylmethyl)acetamide]
65.6 % of control	14.8 % of control	–	CN(C(=O)Cc1c2n(c(=S)n1C)C[C@H](c1c(F)ccc(Cl)c1F)C2)C1CCOC1 (stereo partly drawn) [Example 383, 2-((S)-6-(3-chloro-2,6-difluorophenyl)-2-methyl-3-thioxo-2,5,6,7-tetrahydro-3H-pyrrolo[1,2-c]imidazol-1-yl)-N-methyl-N-(tetrahydrofuran-3-yl)acetamide]

Structure (SMILES)	Plasma (0.01 μM), activity in % of control	Plasma (0.1 μM), activity in % of control	Plasma (1 μM), activity in % of control (inhibitor 1 μM)
Fc1cc(F)c(F)c([C@H]2Cc3c(CN4CCOCC4)[nH]c(=S)n3C2)c1F [Example 209, (R)-1-(morpholinomethyl)-6-(2,3,5,6-tetrafluorophenyl)-6,7-dihydro-2H-pyrrolo[1,2-c]imidazole-3(5H)-thione Hydrochloride]	87.6 % of control	60.3 % of control	–
